ChEMBL document CHEMBL3751764, “Synthesis and in vitro antiproliferative activity of novel pyrazolo[3,4-d]pyrimidine derivatives” (Medchemcomm, 2015)

Legend:
A498 = experiment: Cytotoxicity against human A498 cells assessed as cell growth at 10 uM after 72 hrs by SRB assay relative to control; assay type: functional; settings: A498, 72 h, read-out: Activity
[1] = Cytotoxicity against human Caki1 cells assessed as cell growth at 10 uM after 72 hrs by SRB assay relative to control; assay type: functional; settings: CAKI-1, 72 h, read-out: Activity
A549 = experiment: Cytotoxicity against human A549 cells assessed as cell growth at 10 uM after 72 hrs by SRB assay relative to control; assay type: functional; settings: A549, 72 h, read-out: Activity
[2] = Cytotoxicity against human HCT15 cells assessed as cell growth at 10 uM after 72 hrs by SRB assay relative to control; assay type: functional; settings: HCT-15, 72 h, read-out: Activity
[3] = Cytotoxicity against human PC3 cells assessed as cell growth at 10 uM after 72 hrs by SRB assay relative to control; assay type: functional; settings: PC-3, 72 h, read-out: Activity
SK-MEL-5 = experiment: Cytotoxicity against human SK-MEL-5 cells assessed as cell growth at 10 uM after 72 hrs by SRB assay relative to control; assay type: functional; settings: SK-MEL-5, 72 h, read-out: Activity
SR = experiment: Cytotoxicity against human SR cells assessed as cell growth at 10 uM after 72 hrs by SRB assay relative to control; assay type: functional; settings: read-out: Activity
HT-29 = experiment: Cytotoxicity against human HT-29 cells assessed as cell growth at 10 uM after 72 hrs by SRB assay relative to control; assay type: functional; settings: HT-29, 72 h, read-out: Activity
[4] = Cytotoxicity against human RPMI8226 cells assessed as cell growth at 10 uM after 72 hrs by SRB assay relative to control; assay type: functional; settings: RPMI-8226, 72 h, read-out: Activity
[5] = Cytotoxicity against human TK10 cells assessed as cell growth at 10 uM after 72 hrs by SRB assay relative to control; assay type: functional; settings: TK-10, 72 h, read-out: Activity
[6] = Cytotoxicity against human HCC2998 cells assessed as cell growth at 10 uM after 72 hrs by SRB assay relative to control; assay type: functional; settings: HCC 2998, 72 h, read-out: Activity
[7] = Cytotoxicity against human OVCAR4 cells assessed as cell growth at 10 uM after 72 hrs by SRB assay relative to control; assay type: functional; settings: OVCAR-4, 72 h, read-out: Activity
[8] = Cytotoxicity against human SNB19 cells assessed as cell growth at 10 uM after 72 hrs by SRB assay relative to control; assay type: functional; settings: SNB-19, 72 h, read-out: Activity
[9] = Cytotoxicity against human DU145 cells assessed as cell growth at 10 uM after 72 hrs by SRB assay relative to control; assay type: functional; settings: DU-145, 72 h, read-out: Activity
[10] = Cytotoxicity against human UO31 cells assessed as cell growth at 10 uM after 72 hrs by SRB assay relative to control; assay type: functional; settings: UO-31, 72 h, read-out: Activity
[11] = Cytotoxicity against human SW620 cells assessed as cell growth at 10 uM after 72 hrs by SRB assay relative to control; assay type: functional; settings: SW-620, 72 h, read-out: Activity
SN12C = experiment: Cytotoxicity against human SN12C cells assessed as cell growth at 10 uM after 72 hrs by SRB assay relative to control; assay type: functional; settings: read-out: Activity
[12] = Cytotoxicity against human UACC257 cells assessed as cell growth at 10 uM after 72 hrs by SRB assay relative to control; assay type: functional; settings: UACC-257, 72 h, read-out: Activity
[13] = Cytotoxicity against human SF539 cells assessed as cell growth at 10 uM after 72 hrs by SRB assay relative to control; assay type: functional; settings: SF-539, 72 h, read-out: Activity
NCI-H23 = experiment: Cytotoxicity against human NCI-H23 cells assessed as cell growth at 10 uM after 72 hrs by SRB assay relative to control; assay type: functional; settings: NCI-H23, 72 h, read-out: Activity
[14] = Cytotoxicity against human HOP92 cells assessed as cell growth at 10 uM after 72 hrs by SRB assay relative to control; assay type: functional; settings: HOP-92, 72 h, read-out: Activity
MDA-MB-468 = experiment: Cytotoxicity against human MDA-MB-468 cells assessed as cell growth at 10 uM after 72 hrs by SRB assay relative to control; assay type: functional; settings: MDA-MB-468, 72 h, read-out: Activity
[15] = Cytotoxicity against human OVCAR5 cells assessed as cell growth at 10 uM after 72 hrs by SRB assay relative to control; assay type: functional; settings: OVCAR-5, 72 h, read-out: Activity
NCI-H460 = experiment: Cytotoxicity against human NCI-H460 cells assessed as cell growth at 10 uM after 72 hrs by SRB assay relative to control; assay type: functional; settings: NCI-H460, 72 h, read-out: Activity
[16] = Cytotoxicity against human HL-60(TB) cells assessed as cell growth at 10 uM after 72 hrs by SRB assay relative to control; assay type: functional; settings: HL-60, 72 h, read-out: Activity
[17] = Cytotoxicity against human HCT116 cells assessed as cell growth at 10 uM after 72 hrs by SRB assay relative to control; assay type: functional; settings: HCT-116, 72 h, read-out: Activity
[18] = Cytotoxicity against human BT549 cells assessed as cell growth at 10 uM after 72 hrs by SRB assay relative to control; assay type: functional; settings: BT-549, 72 h, read-out: Activity
NCI-H322M = experiment: Cytotoxicity against human NCI-H322M cells assessed as cell growth at 10 uM after 72 hrs by SRB assay relative to control; assay type: functional; settings: read-out: Activity
MDA-MB-231 = experiment: Cytotoxicity against human MDA-MB-231 cells assessed as cell growth at 10 uM after 72 hrs by SRB assay relative to control; assay type: functional; settings: MDA-MB-231, 72 h, read-out: Activity
[19] = Cytotoxicity against human COLO205 cells assessed as cell growth at 10 uM after 72 hrs by SRB assay relative to control; assay type: functional; settings: COLO 205, 72 h, read-out: Activity
KM12 = experiment: Cytotoxicity against human KM12 cells assessed as cell growth at 10 uM after 72 hrs by SRB assay relative to control; assay type: functional; settings: KM12, 72 h, read-out: Activity
Malme-3M = experiment: Cytotoxicity against human MALME-3M cells assessed as cell growth at 10 uM after 72 hrs by SRB assay relative to control; assay type: functional; settings: read-out: Activity
[20] = Cytotoxicity against human OVCAR3 cells assessed as cell growth at 10 uM after 72 hrs by SRB assay relative to control; assay type: functional; settings: OVCAR-3, 72 h, read-out: Activity
[21] = Cytotoxicity against human OVCAR8 cells assessed as cell growth at 10 uM after 72 hrs by SRB assay relative to control; assay type: functional; settings: OVCAR-8, 72 h, read-out: Activity
[22] = target: Vascular endothelial growth factor receptor 2 (Homo sapiens, UniProt P35968); experiment: Inhibition of human VEGFR2 at 10 uM after 20 to 40 mins by liquid scintillation counting analysis in presence of […]; parameters: scale not given: the % may be the effect or the level left
Vascular endothelial growth factor receptor 2, sequence (P35968 whole entry): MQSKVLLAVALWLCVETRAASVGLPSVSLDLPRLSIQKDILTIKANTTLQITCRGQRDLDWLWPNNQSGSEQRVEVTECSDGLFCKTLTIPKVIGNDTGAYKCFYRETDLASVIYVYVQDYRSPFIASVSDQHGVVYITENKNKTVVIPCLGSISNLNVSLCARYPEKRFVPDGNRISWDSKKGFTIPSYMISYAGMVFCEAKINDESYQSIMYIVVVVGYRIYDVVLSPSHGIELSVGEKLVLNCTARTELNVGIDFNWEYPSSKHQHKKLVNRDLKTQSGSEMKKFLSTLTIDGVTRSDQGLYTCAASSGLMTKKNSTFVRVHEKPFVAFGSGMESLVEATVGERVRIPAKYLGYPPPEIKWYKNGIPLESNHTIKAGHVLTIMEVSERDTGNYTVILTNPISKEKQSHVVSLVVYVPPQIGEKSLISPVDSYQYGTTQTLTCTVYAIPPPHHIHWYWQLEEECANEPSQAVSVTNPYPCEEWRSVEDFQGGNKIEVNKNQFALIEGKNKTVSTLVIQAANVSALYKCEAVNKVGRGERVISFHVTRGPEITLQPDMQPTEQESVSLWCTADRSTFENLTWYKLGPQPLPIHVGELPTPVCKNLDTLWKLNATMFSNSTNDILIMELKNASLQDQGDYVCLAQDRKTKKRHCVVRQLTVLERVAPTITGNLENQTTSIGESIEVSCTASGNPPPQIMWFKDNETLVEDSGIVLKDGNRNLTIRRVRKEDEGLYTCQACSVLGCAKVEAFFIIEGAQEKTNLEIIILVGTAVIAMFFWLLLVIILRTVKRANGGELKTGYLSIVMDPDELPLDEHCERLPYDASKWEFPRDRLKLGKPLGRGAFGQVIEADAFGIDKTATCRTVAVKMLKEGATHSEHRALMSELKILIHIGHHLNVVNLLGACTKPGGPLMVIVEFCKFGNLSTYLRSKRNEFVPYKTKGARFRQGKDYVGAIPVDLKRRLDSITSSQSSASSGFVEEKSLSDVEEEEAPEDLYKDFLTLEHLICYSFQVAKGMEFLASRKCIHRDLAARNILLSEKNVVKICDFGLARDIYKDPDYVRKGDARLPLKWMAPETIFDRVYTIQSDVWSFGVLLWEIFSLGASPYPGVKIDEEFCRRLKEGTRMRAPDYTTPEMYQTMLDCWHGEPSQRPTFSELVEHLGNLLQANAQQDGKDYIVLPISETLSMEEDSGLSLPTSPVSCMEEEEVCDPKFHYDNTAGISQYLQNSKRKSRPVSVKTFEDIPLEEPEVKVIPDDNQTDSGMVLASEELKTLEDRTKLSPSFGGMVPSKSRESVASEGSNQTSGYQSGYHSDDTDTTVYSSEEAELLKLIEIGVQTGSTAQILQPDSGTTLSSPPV

T47D = experiment: Cytotoxicity against human T47D cells assessed as cell growth at 10 uM after 72 hrs by SRB assay relative to control; assay type: functional; settings: read-out: Activity

Cc1ccc2nc(Nc3ncnc4c3cnn4-c3ccccc3)sc2c1 gave a growth at 10 µM (A498) of 66.4%, a growth at 10 µM [1] of 103% and a growth at 10 µM (A549) of 102%. For the same molecule, the growth at 10 µM [2] was 97.8%, the growth at 10 µM [3] was 98.3% and the growth at 10 µM (SK-MEL-5) was 92.1%. It also gave a growth at 10 µM (SR) of 44.8%, a growth at 10 µM (HT-29) of 103% and a growth at 10 µM [4] of 102%. It also gave a growth at 10 µM [5] of 118%, a growth at 10 µM [6] of 106% and a growth at 10 µM [7] of 104%. For the same molecule, the growth at 10 µM [8] was 98.2%, the growth at 10 µM [9] was 103% and the growth at 10 µM [10] was 91.7%. It also gave a growth at 10 µM [11] of 100%, a growth at 10 µM (SN12C) of 97.5% and a growth at 10 µM [12] of 112%. The growth at 10 µM [13] was 101%, the growth at 10 µM (NCI-H23) was 106% and the growth at 10 µM [14] was 97.5%. For the same molecule, the growth at 10 µM (MDA-MB-468) was 80.3%, the growth at 10 µM [15] was 96% and the growth at 10 µM (NCI-H460) was 98.4%. The growth at 10 µM [16] was 103%, the growth at 10 µM [17] was 99.4% and the growth at 10 µM [18] was 108%. The growth at 10 µM (NCI-H322M) was 45.7%, the growth at 10 µM (MDA-MB-231) was 102% and the growth at 10 µM [19] was 110%. For the same molecule, the growth at 10 µM (KM12) was 98.9%, the growth at 10 µM (Malme-3M) was 87% and the growth at 10 µM [20] was 108%. It also gave a growth at 10 µM [21] of 107%, an Activity [22] of -1% and a growth at 10 µM (T47D) of 108%.
